{
  "source": "paper PMC10574767",
  "about": "“Extractives from Artemisia afra with Anti-Bacterial and Anti-Fungal Properties” (Plants, 2023)",
  "key": {"[1]": {"assay": "in vitro", "settings": "monkey, LC50", "protocol": "Cytotoxicity of compounds and extracts was tested against mammalian cells using the MTT assay. MCF-7 cancer cells were grown in a 5% CO2 incubator in Dulbecco’s Modified Eagle’s Medium (DMEM, Highveld Biological, Johannesburg, South Africa) supplemented with 10% fetal calf serum (Adcock-Ingram, Johannesburg, South Africa) and 1% penicillin-streptomycin (10,000 U/mL and 10 mg/mL streptomycin, Sigma Aldrich). In a 5% CO2 incubator, Vero cells were grown in a minimal essential medium (MEM, Highveld Biological, South Africa) supplemented with 5% fetal calf serum (Adcock-Ingram) and 0.1% gentamicin (Virbac). Cell suspensions were obtained from 70–80% confluent monolayer cultures and were plated in 96-well cell culture plates at a density of 1 × 10^4. Plates were incubated in a 5% CO2 incubator for 24 h at 37 °C. The cells were exposed to the extracts or compounds dissolved in the media at different concentrations for 48 h. Positive and negative controls were doxorubicin (Pfizer, New York, NYC, USA) and acetone or DMSO, respectively. After that, the wells were rinsed with phosphate-buffered saline (PBS, Sigma) and 200 µL of fresh medium was poured into the wells. Thirty microlitres (5 mg/mL) of MTT (Sigma) dissolved in PBS was added to each well, and the plates were incubated at 37 °C for 4 h. The medium from the wells was removed, rinsed, and 50 µL of 100% DMSO was added to the wells. At a wavelength of 570 nm, absorbance was measured using a microplate reader (BioTek Synergy, Beijing, China). Each sample concentration was tested in quadruplicate in two repeats (n = 8), and the concentration causing 50% inhibition of cell viability (LC50) was calculated. Selectivity index (SI) values for the extracts/compounds were obtained by dividing cytotoxicity LC50 values of normal (Vero) cells by those of the cancer cells."}, "[2]": {"system": "one fungal and five bacterial strains", "assay": "Serial dilution microplate MIC, whole panel", "type": "cell-based", "settings": "isolated compounds, all tested strains; highest concentration 250 µg/mL; read-out: MIC against all tested microorganisms", "protocol": "The MIC value of the plant extracts and isolated compounds against one fungal and five bacterial strains (Salmonella Typhimurium ATCC 39183, Escherichia coli ATCC 25922, Pseudomonas aeruginosa ATCC 27853, Staphylococcus aureus ATCC 29213, Enterococcus faecalis ATCC 29212, and fungi culture, Candida albicans ATCC 10231) was assessed in triplicate using the serial dilution microplate method; acetone and DMSO were used as solvents. Bacterial cultures were grown in Mueller Hinton broth (Sigma Aldrich, St. Louis, MO, USA) overnight and adjusted to McFarland standard 1 (1 × 10^8 CFU/mL). Then, 100 µL of samples were transferred into the first well of a sterile 96-well microtiter plate, which contained 100 µL of water and a 1:1 serial dilution with sterilized distilled water was carried out. In each well, 100 µL of appropriately adjusted fungal or bacterial cultures were added, and the bacteria were subjected to final concentrations of 250–3.9 μg/mL for pure compounds and 2.5–0.02 mg/mL for crude extracts. Amphotericin-B and Gentamicin (Virbac, Carros, France) served as positive controls for fungi and bacteria, respectively. For sterility, water served as control, while acetone served as a negative control. The microplates were then incubated for 24 h at 37 °C. Following incubation, 40 µL of 0.2 mg/mL p-iodonitrotetrazolium violet (INT, Sigma Aldrich) dissolved in water (hot) was added to the wells before being incubated at 37 °C for another 2 h. In the case of fungi, the INT was added before incubation. The MIC was measured visually as the lowest concentration of the compounds/extracts that inhibited proliferation."}, "[3]": {"system": "Escherichia coli", "set-up": "method as in ref 36 = [36]; 36. Koay Y.C. Wong K.C. Hasnah O. Ibrahim E.M.S. Mohammad Z.A. Chemical constituents and biological activities of Strobilanthes crispus L. Rec. Nat. Prod. 2013 7 59 64", "settings": "cited from earlier work"}, "[4]": {"system": "Klebsiella pneumoniae", "set-up": "method as in ref 36 = [36]; 36. Koay Y.C. Wong K.C. Hasnah O. Ibrahim E.M.S. Mohammad Z.A. Chemical constituents and biological activities of Strobilanthes crispus L. Rec. Nat. Prod. 2013 7 59 64", "settings": "cited from earlier work"}, "[5]": {"system": "T. rubrum", "set-up": "method as in PMID 19844829, PMID 35453556", "settings": "cited from earlier work"}, "[6]": {"system": "Aspergillus niger", "set-up": "method as in PMID 19844829, PMID 35453556", "settings": "cited from earlier work"}, "[7]": {"system": "A431 squamous carcinoma cell line", "set-up": "method as in PMID 35453556, PMID 21294076", "settings": "cited from earlier work"}, "[8]": {"system": "MCF-7", "set-up": "method as in PMID 35453556, PMID 21294076", "settings": "cited from earlier work"}, "[9]": {"system": "MRC-5", "set-up": "method as in PMID 35453556, PMID 21294076", "settings": "cited from earlier work"}},
  "data": [
    {"compound": "CC1(C)CC[C@]2(C)CC=C3[C@]4(C)CC[C@H]5C(C)(C)[C@@H](O)CC[C@]5(C)[C@H]4CC[C@@]3(C)[C@@H]2C1", "note": "[Compound 3β-Taraxerol, 3β-taraxerol]", "values": [
      {"measurement": "CC50 at 48 h", "setting": "[1]", "result": "> 200", "unit": "µg/mL"},
      {"measurement": "MIC", "setting": "[2]", "result": "> 250", "unit": "µg/mL"},
      {"measurement": "MIC Escherichia coli", "setting": "[3]", "result": 62.5, "unit": "µg/mL"},
      {"measurement": "MIC Klebsiella pneumoniae", "setting": "[4]", "result": 62.5, "unit": "µg/mL"},
      {"measurement": "MIC T. rubrum", "setting": "[5]", "result": 12.5, "unit": "µg/mL"},
      {"measurement": "MIC Aspergillus niger", "setting": "[6]", "result": 100, "unit": "µg/mL"},
      {"measurement": "Cytotoxicity A431", "setting": "[7]", "result": 2.65, "unit": "µg/mL"},
      {"measurement": "Cytotoxicity MCF-7", "setting": "[8]", "result": "inactive"},
      {"measurement": "Cytotoxicity MRC-5", "setting": "[9]", "result": "inactive"}
    ]}
  ]
}
